Drawing on patent US20110112100A1, “Hepatitis C Virus Inhibitors” (priority 2009, published 2011), this text covers IC50 for twelve compounds.

For one assay, the system named is 1a-H77 replicon cells. Kind of assay: HCV 1a replicon inhibitory activity (Renilla luciferase). It counts as cell-based, hepatitis C virus. Conditions: read-out: IC50 value (95% Confidence Intervals) pM Replicon 1A assay. As to the method:
(§1) Test compounds were solubilised to 4 mM in 100% DMSO. Dilutions were made to the desired starting concentration in 100% DMSO and then 1 in 3 dilutions made, again in 100% DMSO. 0.5 μl of each sample was added to 384-well assay plates. White Lumitrac (Greiner) plates were used for the 1a and 1b replicon assays and black, clear bottomed (Greiner) plates were used for the WST-1 cytotoxity assay.
1a-H77 replicon cells (licensed from Apath LLC) were resuspended to a concentration of 1.4×10^5 cells/ml by addition of pre-warmed assay medium (Dulbecco's Modified Eagle's Medium (DMEM)+10% fetal calf serum (FCS)). 50 μl of this suspension was added to each well of a 384-well assay plate (Lumitrac, Greiner), already containing 0.5 μl of test compound.
All plates were covered with gas permeable seals and incubated at 37° C., 5% CO2 for 48 hours. After 48 hours, the assay plate was removed from the incubator and left to cool to room temperature for 15 to 30 mins. Medium was removed from the wells and 5 μl 1× lysis buffer (from Promega's Renilla Luciferase assay kit, E2820) was added to each well. The plate was incubated at room temperature for 15 mins then 15 μl 1×Assay Substrate (from the same kit) was added to each well. Luminescence was read immediately using an EnVision (Perkin Elmer) plate reader. The half maximal effective concentration (1050) values were calculated by constructing log concentration-response curves for each compound.

A further assay relates to 1b (con1) replicon cells. Description: HCV 1b replicon inhibitory activity (luciferase, Britelite Plus). The following applies: read-out: IC50 value (95% Confidence Intervals) pM Replicon 1B assay. The class given is cell-based, hepatitis C virus. As to the method: as §1
1b (con1) replicon cells (pFK1389lucubineo/NS3-3′/ET/9B, licensed from Ralf Bartenschlager, University of Heidelberg) were resuspended to a concentration of 1.4×10^5 cells/ml by addition of pre-warmed medium (DMEM+10% FCS). 50 μl of this suspension was added to each well of a 384-well assay plate (Lumitrac, Greiner) already containing 0.5 μl of test compound.
All plates were covered with gas permeable seals and incubated at 37° C., 5% CO2 for 48 hours. After 48 hours, the plate was removed from the incubator and left to cool to room temperature for 15-30 mins. 35 ul of reconstituted Lyophilised Britelite Plus Substrate (PerkinElmer, 6016767) to medium was added to each well. Luminescence was read after 1 min but before 15 mins on an EnVision (Perkin Elmer) plate reader. The half maximal effective concentration (1050) values were calculated by constructing log concentration-response curves for each compound.
(Replicon systems follow genome replication, usually without infectious particles.)

Where [1] appears, read: geometric mean, 95% confidence intervals in parentheses, 48 hours, medium with 10% FCS.
Where [2] appears, read: Hepatitis C virus, geometric mean, 95% confidence intervals in parentheses, 48 hours, medium with 10% FCS.

Usually IC50 stands for the point on the concentration scale where inhibition reaches its midpoint.

Structures can show the parent of a compound that is named as a salt. Where two headings read alike, the source gives them in different places.

With `COC(=O)N[C@H](C(=O)N1CCC[C@H]1c1nc(-c2ccc(-c3cnc4cc(-c5cnc([C@@H]6CCCN6C(=O)CNC(=O)c6cc(C)on6)[nH]5)ccc4n3)cc2)c[nH]1)C(C)C` [Example 42, Methyl {(2S)-3-methyl-1-[(2S)-2-{4-[4-(6-{2-[(2S)-1-{N-[(5-methylisoxazol-3-yl)carbonyl]glycyl}pyrrolidin-2-yl]-1H-imidazol-5-yl}quinoxalin-2-yl)phenyl]-1H-imidazol-2-yl}pyrrolidin-1-yl]-1-oxobutan-2-yl}carbamate trifluoroacetic acid salt], the IC50 in the assay on 1a-H77 replicon cells (Hepatitis C virus, 48 h) came to 2870 pM; in the assay with 1b (con1) replicon cells (Hepatitis C virus, 48 h), 247 pM.

As to `COC(=O)N[C@H](C(=O)N1CCC[C@H]1c1nc(-c2ccc(-c3cnc4cc(-c5cnc([C@@H]6CCCN6C(=O)[C@@H](CC(C)C)NC(=O)OC)[nH]5)ccc4n3)cc2)c[nH]1)C(C)C` [Example 54, Methyl {(2R)-1-[(2S)-2-{5-[2-(4-{2-[(2S)-1-{(2S)-2-[(methoxycarbonyl)amino]-3-methylbutanoyl}pyrrolidin-2-yl]-1H-imidaozl-4-yl}phenyl)quinoxalin-6-yl]-1H-imidazol-2-yl}pyrrolidin-1-yl]-4-methyl-1-oxopentan-2-yl}carbamate trifluoroacetic acid salt], the values for the IC50 in the assay with 1a-H77 replicon cells (setting [1]) and with 1b (con1) replicon cells (setting [1]) were 61.2 pM and 14.9 pM, respectively.

As to `COC(=O)N[C@H](C(=O)N1CCC[C@H]1c1nc(-c2ccc(-c3cnc4cc(-c5cnc([C@@H]6CCCN6C(=O)CNC(C)=O)[nH]5)ccc4n3)cc2)c[nH]1)C(C)C` [Example 35, Methyl {(2S)-1-[(2S)-2-{4-[4-(6-{2-[(2S)-1-(N-acetylglycyl)pyrrolidin-2-yl]-1H-imidazol-5-yl}quinoxalin-2-yl)phenyl]-1H-imidazol-2-yl}pyrrolidin-1-yl]-3-methyl-1-oxobutan-2-yl}carbamate trifluoroacetic acid salt], the IC50 in the assay on 1a-H77 replicon cells (Hepatitis C virus, 48 h) was 2300 pM; in the assay on 1b (con1) replicon cells (Hepatitis C virus, 48 h) it was 254 pM.

Regarding `COC(=O)N[C@H](C(=O)N1CCC[C@H]1c1nc(-c2ccc(-c3cnc4cc(-c5cnc([C@@H]6CCCN6C(=O)[C@H](NC(=O)OC)[C@@H](C)OC(C)(C)C)[nH]5)ccc4n3)cc2)c[nH]1)C(C)C` [Example 75, Methyl {(2S)-1-[(2S)-2-{4-[4-(6-{2-[(2S)-1-{(2R,3R)-3-tert-butoxy-2-[(methoxycarbonyl)amino]butanoyl}pyrrolidin-2-yl]-1H-imidazol-5-yl}quinoxalin-2-yl)phenyl]-1H-imidazol-2-yl}pyrrolidin-1-yl]-3-methyl-1-oxobutan-2-yl}carbamate trifluoroacetic acid salt], the IC50 in the assay with 1a-H77 replicon cells (Hepatitis C virus, 48 h) came out at 4190 pM; in the assay on 1b (con1) replicon cells (Hepatitis C virus, 48 h), 143 pM.

As for `COC(=O)N[C@H](C(=O)N1CCC[C@H]1c1ncc(-c2ccc(-c3cnc4cc(-c5cnc([C@@H]6CCCN6C(=O)[C@@H](NC(=O)OC)C(C)C)[nH]5)ccc4n3)cc2)[nH]1)C(C)C` [Example 4, Methyl {(2S)-1-[(2S)-2-{5-[4-(6-{2-[(2S)-1-{(2S)-2-[(methoxycarbonyl)amino]-3-methylbutanoyl}pyrrolidin-2-yl]-1H-imidazol-5-yl}quinoxalin-2-yl)phenyl]-1H-imidazol-2-yl}pyrrolidin-1-yl]-3-methyl-1-oxobutan-2-yl}carbamate], the IC50 was 17.4 pM in the assay on 1a-H77 replicon cells (setting [2]) and 7.7 pM in the assay on 1b (con1) replicon cells (setting [2]).

For the compound `COC(=O)N[C@H](C(=O)N1CCC[C@H]1c1nc(-c2ccc(-c3cnc4cc(-c5cnc([C@@H]6CCCN6C(=O)CNC(=O)CC(C)C)[nH]5)ccc4n3)cc2)c[nH]1)C(C)C` [Example 33, Methyl {(2S)-3-methyl-1-[(2S)-2-(4-{4-[6-(2-{(2S)-1-[N-(3-methylbutanoyl)glycyl]pyrrolidin-2-yl}-1H-imidazol-5-yl)quinoxazolin-2-yl]phenyl}-1H-imidazol-2-yl}pyrrolidin-1-yl]-1-oxobutan-2-yl} carbamate trifluoroacetic acid salt], the IC50 is 2590 pM in the assay with 1a-H77 replicon cells (setting [1]) and 32.2 pM in the assay with 1b (con1) replicon cells (setting [1]).

In the case of `COC(=O)N[C@@H](CO)C(=O)N1CCC[C@H]1c1ncc(-c2ccc3nc(-c4ccc(-c5c[nH]c([C@@H]6CCCN6C(=O)[C@@H](NC(=O)OC)C(C)C)n5)cc4)cnc3c2)[nH]1` [Example 64, Methyl {(2S)-1-[(2S)-2-{4-[4-(6-{2-[(2S)-1-{(2S)-3-hydroxy-2-[(methoxycarbonyl)amino]propanoyl}pyrrolidin-2-yl]-1H-imidazol-5-yl}quinoxalin-2-yl)phenyl]-1H-imidazol-2-yl}pyrrolidin-1-yl]-3-methyl-1-oxobutan-2-yl}carbamate trifluoroacetic acid salt], the IC50 in the assay with 1a-H77 replicon cells (Hepatitis C virus, 48 h) turned out to be 44.9 pM; with 1b (con1) replicon cells (Hepatitis C virus, 48 h), 42 pM.

For `CC[C@H](NC(=O)OC)C(=O)N1CCC[C@H]1c1ncc(-c2ccc3cc(-c4ccc(-c5cnc([C@@H]6CCCN6C(=O)[C@@H](NC(=O)OC)C(C)C)[nH]5)cc4)ccc3c2)[nH]1` [Example 26, Methyl {(2S)-1-[(2S)-2-{5-[4-(6-{2-[(2S)-1-{(2S)-2-[(methoxycarbonyl)amino]butanoyl}pyrrolidin-2-yl]-1H-imidazol-5-yl}naphthalen-2-yl)phenyl]-1H-imidazol-2-yl}pyrrolidin-1-yl]-3-methyl-1-oxobutan-2-yl}carbamate], the results for the IC50 in the assay with 1a-H77 replicon cells (setting [2]) and in the assay on 1b (con1) replicon cells (setting [2]) were 64.1 pM and 1.92 pM, respectively.

With `COC(=O)N[C@H](C(=O)N1CCC[C@H]1c1ncc(-c2ccc(-c3cnc4cc(-c5cnc([C@@H]6CCCN6C(=O)[C@@H](NC(=O)OC)C(C)C)[nH]5)cnc4n3)cc2)[nH]1)C(C)C` [Example 14, Methyl {(2S)-1-[(2S)-2-{5-[3-(4-{2-[(2S)-1-{(2S)-2-[(methoxycarbonyl)amino]-3-methyl-butanoyl}pyrrolidin-2-yl]-1H-imidazol-5-yl}phenyl)pyrido[2,3-b]pyrazin-7-yl]-1H-imidazol-2-yl}pyrrolidin-1-yl]-3-methyl-1-oxobutan-2-yl}carbamate], the IC50 in the assay on 1a-H77 replicon cells (setting [2]) was determined as 882 pM; with 1b (con1) replicon cells (setting [2]), 189 pM.

In the case of `COC(=O)N[C@H](C(=O)N1CCC[C@H]1c1nc(-c2ccc(-c3cc4ccc(-c5cnc([C@@H]6CCCN6C(=O)[C@@H](NC(=O)OC)C(C)C)[nH]5)cc4cn3)nc2)c[nH]1)C(C)C` [Example 11, Methyl {(2S)-1-[(2S)-2-{4-[6-(7-{2-[(2S)-1-{(2S)-2-[(methoxycarbonyl)amino]-3-methyl-butanoyl}pyrrolidin-2-yl]-1H-imidazol-5-yl}isoquinolin-3-yl)pyridin-3-yl]-1H-imidazol-2-yl}pyrrolidin-1-yl]-3-methyl-1-oxobutan-2-yl}carbamate], the values for the IC50 in the assay with 1a-H77 replicon cells (setting [2]) and with 1b (con1) replicon cells (setting [2]) were 42.1 pM and 20.8 pM, respectively.

In the case of `COC(=O)N[C@H](C(=O)N1CCC[C@H]1c1nc(-c2ccc(-c3cnc4cc(-c5cnc([C@@H]6CCCN6C(=O)CNC(=O)c6ccc7[nH]cnc7c6)[nH]5)ccc4n3)cc2)c[nH]1)C(C)C` [Example 43, Methyl {(2S)-1-[(2S)-2-(4-{4-[6-(2-{(2S)-1-[N-(1H-benzimidazol-5-ylcarbonyl)glycyl]pyrrolidin-2-yl}-1H-imidazol-5-yl)quinoxalin-2-yl]phenyl}-1H-imidazol-2-yl)pyrrolidin-1-yl]-3-methyl-1-oxobutan-2-yl}carbamate trifluoroacetic acid salt], the IC50 stood at 787 pM in the assay with 1a-H77 replicon cells (Hepatitis C virus, 48 h) and 388 pM in the assay on 1b (con1) replicon cells (Hepatitis C virus, 48 h).

As to `COC(=O)N[C@@H](C)C(=O)N1CCC[C@H]1c1ncc(-c2ccc3nc(-c4ccc(-c5c[nH]c([C@@H]6CCCN6C(=O)[C@@H](NC(=O)OC)C(C)C)n5)cc4)cnc3c2)[nH]1` [Example 57, Methyl {(2S)-1-[(2S)-2-(4-{4-[6-(2-{(2S)-1-[N-(methoxycarbonyl)-L-alanyl]pyrrolidin-2-yl}-1H-imidazol-5-yl)quinoxalin-2-yl]phenyl}-1H-imidazol-2-yl)pyrrolidin-1-yl]-3-methyl-1-oxobutan-2-yl} carbamate trifluoroacetic acid salt], the IC50 in the assay with 1a-H77 replicon cells (setting [1]) stood at 21.8 pM; in the assay with 1b (con1) replicon cells (setting [1]) it was 21.9 pM.
